Data on one compound can be found in patent publication US9464215B2, “Use of a ketal as a solvent in adhesives and ketal-containing adhesive composition” (OXITENO S.A. INDÚSTRIA E COMÉRCIO, priority 2012, dated 2016).

In brackets after ≈: the same amount, converted by molar mass.

The nature of series [1]: Water solubility. Format: physicochemical. Particulars: heading: Water solubility.
Series [2] is described as follows: Solubilization and gel formation of 2 wt% polychloroprene solution. Format: physicochemical. Particulars: 2% by weight of polymer, rest for 24 hours. On the procedure: A polychloroprene solution was prepared in 2-methyl-2-ethyl-1,3-dioxolane at a concentration of 2% by weight of the polymer, which was allowed to rest for 24 hours. […] Gel formation usually takes place by using toluene or an aromatic hydrocarbon solvent, and was not expected in the case of oxygenated solvents, such as 2-methyl-2-ethyl-1,3-dioxolane.

The conditions of series [3]: IARC, NTP, OSHA, ACGIH; cited from earlier work.
In series [4] the test system is rat. To be noted: 4 hours of exposure; cited from earlier work.
Series [5] concerns rabbit. To be noted: 24 hours of exposure; cited from earlier work.
Series [6] deals with rat. Particulars: cited from earlier work.
For series [7], the system named is rabbit. Particulars: cited from earlier work.
Series [8] concerns rabbit. Particulars: 24 hours of exposure; cited from earlier work. The source holds these as a separate data set.

As usually defined, the solubility is the concentration that dissolves in the medium under given conditions. `CCC1(C)OCCO1` [2-methyl-2-ethyl-1,3-dioxolane] registered a solubility in series [1] of 3260 µg/mL (≈ 28.1 mM). The Gel formation entry in series [2] was “formation of a gel was seen”. In series [3], the Carcinogenicity listing result is “not listed as carcinogenic”. The “LCLo/4 H (inhalation rat)” value in series [4] was 4,000 ppm/4 H. Besides, the “LCLo/24H (eye irritation - rabbit)” value in series [5] is given as 500 mg/24 H. Moreover, in series [6], the “LD50 (oral rat)” value is recorded as 2,830 μL/kg. In series [7], the “DL50 (dermal rabbit)” value is on record as 10 mL/kg. Further, the “LCLo/24 H (skin rash - rabbit)” value in series [8] was 500 mg/24 H.
